Assay results published in US5462927A, “Peptides aiding nerve regeneration” (The Administrators of the Tulane Educational Fund, priority 1992, dated 1995).
Ends that are not written are not given here.

Tested on: crushed sciatic nerve
Assay: Sensorimotor function test (sciatic nerve regeneration assay, foot-flick response to thermal pain)
Format: in vivo, rat
Conditions: s.c. every 24 hr for approximately 20-25 days; head prints only 'μG/24 HRS'; vs 0.9% NaCl control
Description: Female, Sprague-Dawley rats (Charles River Breeding Labs) were used at an age of 7-8 weeks (120-140 g). Under ether anesthesia, the right sciatic nerve was carefully exposed and crushed with constant pressure, hemostatic forceps for 30 sec prior to closure and suturing of the incision. After surgery, the animals were randomly assigned to treatment groups of 10. The test peptides were administered s.c. in 0.9% NaCl in a vol of 0.1 ml. NaCl (0.9%) served as the control. Injections were started immediately after surgery and given every 24 hr thereafter for approximately 20-25 days. The criterion of sciatic nerve regeneration was based on the recovery of the foot-flick response to thermal pain. Beginning 48 hr after surgery, the rats were tested five days a week for the ability to withdraw, from a heat source, the paw innervated by the crushed nerve. All sensorimotor testing was performed between 1:00 and 3:00 p.m. Specifically, the rat was immobilized by wrapping in a towel, and the sole of the lesioned limb was placed over the aperture of a modified d'Amour apparatus. The time required to withdraw the foot was recorded to the nearest 0.1 of sec using a digital stopwatch. If no response occurred by 5 sec, the test was terminated to avoid tissue damage. The observe measuring the foot-flick response was blind to the treatment group being tested. All animals were acclimatized to the testing procedure prior to surgery. Baseline values were obtained by determining the response time for the unlesioned limb.

Molecule	% Reduction of Recovery Time
CCCC[C@H](N)C(=O)N[C@@H](CCC(N)=O)C(=O)N[C@@H](Cc1c[nH]cn1)C(=O)N[C@@H](Cc1ccccc1)C(=O)N[C@@H](CCCNC(=N)N)C(=O)N[C@@H](Cc1c[nH]c2ccccc12)C(=O)NCC(N)=O [BIM-22010, NLeu--Gln--His--Phe--Arg--Trp--Gly--NH2]	13%
AQYFRWG-NH2 [BIM-22016, L--Ala--Gln--Tyr--Phe--Arg--Trp--Gly--NH2]	13%
